{"source": "PubChem BioAssay (NCI)", "test_in_all_cases": "NCI tumour cell line growth inhibition, 48 h", "key": {"DMS 114 small cell lung": {"test_system": "DMS 114 small cell lung"}, "KM20L2 colon": {"test_system": "KM20L2 colon"}, "LXFL 529 NSCLC": {"test_system": "LXFL 529 NSCLC"}, "RXF-631 renal": {"test_system": "RXF-631 renal"}, "XF 498 CNS": {"test_system": "XF 498 CNS"}, "MCF7 breast": {"test_system": "MCF7 breast"}, "MDA-N": {"test_system": "MDA-N"}, "MDA-MB-435": {"test_system": "MDA-MB-435"}, "NCI/ADR-RES ovarian": {"test_system": "NCI/ADR-RES ovarian"}, "P388 leukemia": {"test_system": "P388 leukemia"}, "P388/ADR leukemia": {"test_system": "P388/ADR leukemia"}, "SN12K1 renal": {"test_system": "SN12K1 renal"}}, "note": "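Protocol summary: plate cells (96-well), add compound at 5 concentrations, incubate 48 h, interpolate endpoints linearly. TGI: total growth inhibition.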", "data": [{"smiles": "CC(C)(C)CC(C)(C)c1cc2c(O)c(c1)Cc1cc(C(C)(C)CC(C)(C)C)cc(c1O)Cc1cc(C(C)(C)CC(C)(C)C)cc(c1O)Cc1cc(C(C)(C)CC(C)(C)C)cc(c1O)C2", "values": [{"measurement": "TGI", "setting": "DMS 114 small cell lung", "result": "> 100", "unit": "µM"}, {"measurement": "TGI", "setting": "KM20L2 colon", "result": "> 100", "unit": "µM"}, {"measurement": "TGI", "setting": "LXFL 529 NSCLC", "result": "> 100", "unit": "µM"}, {"measurement": "TGI", "setting": "RXF-631 renal", "result": "> 100", "unit": "µM"}, {"measurement": "TGI", "setting": "XF 498 CNS", "result": "> 100", "unit": "µM"}]}, {"smiles": "CC(C)N(C(=O)C12C3C4C5(C#N)C3C1(C#N)C5C42I)C(C)C", "note": "(stereo not given)", "values": [{"measurement": "TGI", "setting": "DMS 114 small cell lung", "result": "> 64.5", "unit": "µM"}, {"measurement": "TGI", "setting": "KM20L2 colon", "result": "> 100", "unit": "µM"}, {"measurement": "TGI", "setting": "LXFL 529 NSCLC", "result": "> 100", "unit": "µM"}, {"measurement": "TGI", "setting": "RXF-631 renal", "result": "> 100", "unit": "µM"}, {"measurement": "TGI", "setting": "XF 498 CNS", "result": "> 100", "unit": "µM"}]}, {"smiles": "CCCCC(C(=O)C(=O)NC1C2CC3CC(C2)CC1C3)C(=O)C(C)C", "note": "(stereo not given)", "values": [{"measurement": "TGI", "setting": "DMS 114 small cell lung", "result": "> 100", "unit": "µM"}, {"measurement": "TGI", "setting": "KM20L2 colon", "result": "> 100", "unit": "µM"}, {"measurement": "TGI", "setting": "LXFL 529 NSCLC", "result": "> 100", "unit": "µM"}, {"measurement": "TGI", "setting": "RXF-631 renal", "result": "> 100", "unit": "µM"}, {"measurement": "TGI", "setting": "XF 498 CNS", "result": "> 100", "unit": "µM"}]}, {"smiles": "COC(=O)C1=C(O)c2cc(OC)c(OC)cc2C(c2ccc(OC)c(OC)c2)C1", "note": "(stereo not given)", "values": [{"measurement": "TGI", "setting": "DMS 114 small cell lung", "result": "> 100", "unit": "µM"}, {"measurement": "TGI", "setting": "KM20L2 colon", "result": "> 100", "unit": "µM"}, {"measurement": "TGI", "setting": "LXFL 529 NSCLC", "result": "> 100", "unit": "µM"}, {"measurement": "TGI", "setting": "RXF-631 renal", "result": "> 100", "unit": "µM"}, {"measurement": "TGI", "setting": "XF 498 CNS", "result": "> 100", "unit": "µM"}]}, {"smiles": "NNC(=S)N/N=C(\\CC1OC(=O)c2ccccc21)c1ccccc1O", "note": "(stereo not given)", "values": [{"measurement": "TGI", "setting": "DMS 114 small cell lung", "result": "> 100", "unit": "µM"}, {"measurement": "TGI", "setting": "KM20L2 colon", "result": "> 100", "unit": "µM"}, {"measurement": "TGI", "setting": "LXFL 529 NSCLC", "result": "> 100", "unit": "µM"}, {"measurement": "TGI", "setting": "RXF-631 renal", "result": "> 100", "unit": "µM"}, {"measurement": "TGI", "setting": "XF 498 CNS", "result": "> 100", "unit": "µM"}]}, {"smiles": "CN(C)/C=N/c1nc2c(ncn2C2OC(CO)C(O)C2O)c(=O)[nH]1", "note": "(stereo not given)", "values": [{"measurement": "TGI", "setting": "DMS 114 small cell lung", "result": "> 100", "unit": "µM"}, {"measurement": "TGI", "setting": "KM20L2 colon", "result": "> 100", "unit": "µM"}, {"measurement": "TGI", "setting": "LXFL 529 NSCLC", "result": "> 100", "unit": "µM"}, {"measurement": "TGI", "setting": "RXF-631 renal", "result": "> 100", "unit": "µM"}, {"measurement": "TGI", "setting": "XF 498 CNS", "result": "> 100", "unit": "µM"}]}, {"smiles": "CC(=O)c1cccc(NC(=O)C(=O)NNc2n[nH]c(=S)n2N)c1", "values": [{"measurement": "TGI", "setting": "DMS 114 small cell lung", "result": 3.93, "unit": "µM"}, {"measurement": "TGI", "setting": "KM20L2 colon", "result": 46.1, "unit": "µM"}, {"measurement": "TGI", "setting": "LXFL 529 NSCLC", "result": 22.5, "unit": "µM"}, {"measurement": "TGI", "setting": "MCF7 breast", "result": 18.7, "unit": "µM"}, {"measurement": "TGI", "setting": "MDA-N", "result": 3.8, "unit": "µM"}, {"measurement": "TGI", "setting": "RXF-631 renal", "result": 10.9, "unit": "µM"}, {"measurement": "TGI", "setting": "XF 498 CNS", "result": 25.7, "unit": "µM"}]}, {"smiles": "Cc1nn(-c2ccccc2)c2nc(N3CCOCC3)nnc12", "values": [{"measurement": "TGI", "setting": "DMS 114 small cell lung", "result": "> 100", "unit": "µM"}, {"measurement": "TGI", "setting": "KM20L2 colon", "result": "> 100", "unit": "µM"}, {"measurement": "TGI", "setting": "LXFL 529 NSCLC", "result": "> 100", "unit": "µM"}, {"measurement": "TGI", "setting": "RXF-631 renal", "result": "> 100", "unit": "µM"}, {"measurement": "TGI", "setting": "XF 498 CNS", "result": "> 100", "unit": "µM"}]}, {"smiles": "CO/N=C/c1cc(OC)c(OC)c(OC)c1", "values": [{"measurement": "TGI", "setting": "DMS 114 small cell lung", "result": "> 100", "unit": "µM"}, {"measurement": "TGI", "setting": "KM20L2 colon", "result": "> 100", "unit": "µM"}, {"measurement": "TGI", "setting": "LXFL 529 NSCLC", "result": "> 100", "unit": "µM"}, {"measurement": "TGI", "setting": "RXF-631 renal", "result": "> 100", "unit": "µM"}, {"measurement": "TGI", "setting": "XF 498 CNS", "result": "> 100", "unit": "µM"}]}, {"smiles": "CC(C)c1ccccc1NC(=O)CCc1n[nH]c(=S)o1", "values": [{"measurement": "TGI", "setting": "DMS 114 small cell lung", "result": "> 100", "unit": "µM"}, {"measurement": "TGI", "setting": "KM20L2 colon", "result": "> 100", "unit": "µM"}, {"measurement": "TGI", "setting": "LXFL 529 NSCLC", "result": "> 100", "unit": "µM"}, {"measurement": "TGI", "setting": "RXF-631 renal", "result": "> 100", "unit": "µM"}, {"measurement": "TGI", "setting": "XF 498 CNS", "result": "> 100", "unit": "µM"}]}, {"smiles": "CC(O)CCC(=O)c1ccoc1", "note": "(stereo not given)", "values": [{"measurement": "TGI", "setting": "DMS 114 small cell lung", "result": "> 9670", "unit": "µM"}, {"measurement": "TGI", "setting": "KM20L2 colon", "result": "> 10000", "unit": "µM"}, {"measurement": "TGI", "setting": "MCF7 breast", "result": "> 10000", "unit": "µM"}, {"measurement": "TGI", "setting": "MDA-MB-435", "result": "> 10000", "unit": "µM"}, {"measurement": "TGI", "setting": "NCI/ADR-RES ovarian", "result": "> 9750", "unit": "µM"}, {"measurement": "TGI", "setting": "P388 leukemia", "result": "> 10000", "unit": "µM"}, {"measurement": "TGI", "setting": "P388/ADR leukemia", "result": "> 10000", "unit": "µM"}, {"measurement": "TGI", "setting": "SN12K1 renal", "result": "> 10000", "unit": "µM"}]}]}
